In the supplement of paper PMC10307832:

How the values were obtained:
Crizotinib = compound: C[C@@H](Oc1cc(-c2cnn(C3CCNCC3)c2)cnc1N)c1c(Cl)ccc(F)c1Cl [Crizotinib]; experiment: relative viability (nuclei count vs DMSO), 5 days (fraction); higher = more cells survive
Summary of the method: (§1)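 Viability here means nuclei in treated wells divided by nuclei in vehicle wells, reported as the median across plates. Only plates with control CV below 25% and at least one doubling passed. Lung cancer cell lines in 1536-well plates were exposed to five √10-spaced library-drug doses for 5 days and counted from 4× Hoechst images in MetaXpress.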

Olaparib = compound: O=C(c1cc(Cc2n[nH]c(=O)c3ccccc23)ccc1F)N1CCN(C(=O)C2CC2)CC1 [Olaparib]; experiment: as above
Summary of the method: as §1

| Cell Line | relative viability (Crizotinib; 0.01 µM) | relative viability (Crizotinib; 0.03162 µM) | relative viability (Crizotinib; 0.1 µM) | relative viability (Crizotinib; 1 µM) | relative viability (Crizotinib; 1 µM, anchor plate) | relative viability (Olaparib; 0.08 µM) | relative viability (Olaparib; 0.253 µM) | relative viability (Olaparib; 2.53 µM) | relative viability (Olaparib; 8 µM) | relative viability (Olaparib; 8 µM, anchor plate) | relative viability (Crizotinib; 0.3162 µM) |
| --- | --- | --- | --- | --- | --- | --- | --- | --- | --- | --- | --- |
| EMC-BAC-2 | 1.08 | 0.96 | 0.98 | 0.923 | 0.767 | 1.1 | 0.91 | 1.05 | 0.849 | 0.477 |  |
| COR-L 105 | 0.844 | 0.938 | 0.901 | 0.932 | 0.826 | 0.896 | 0.87 | 0.763 | 0.785 | 0.697 | 0.847 |
| NCI-H596 | 1.02 | 1.04 | 1.09 | 0.967 | 0.989 | 0.987 | 0.86 | 0.919 | 0.792 | 0.711 | 0.98 |
| EBC-1 | 0.965 | 1.05 | 0.976 | 0.199 | 0.192 | 1.2 | 0.883 | 0.98 | 0.752 | 0.703 | 0.17 |
| NCI-H2347 | 0.965 | 0.974 | 1.07 | 1.06 | 0.73 | 1.09 | 0.877 | 0.877 | 0.765 | 0.583 | 0.973 |
| HCC-78 | 0.916 | 0.993 | 1.01 | 0.778 | 0.348 | 1.1 | 0.836 | 0.953 | 0.861 | 0.831 | 0.476 |
| NCI-H1650 | 0.842 | 0.993 | 0.969 | 0.931 | 1.02 | 1.21 | 0.848 | 0.785 | 0.871 | 0.812 | 0.891 |
| COR-L23 | 1.01 | 1.04 | 0.963 | 0.885 | 0.623 | 1.04 | 1.04 | 0.908 | 0.579 | 0.353 | 0.978 |
| NCI-H322M | 0.778 |  | 1 | 0.955 | 0.93 | 1.06 | 0.888 | 0.98 | 0.815 | 0.745 | 0.922 |
| NCI-H2085 | 0.936 | 1.03 | 0.977 | 0.975 | 0.882 | 1.16 | 0.912 | 0.983 | 0.959 | 0.769 | 1 |
| NCI-H2023 | 0.85 | 0.982 | 0.974 | 0.734 | 0.676 | 0.98 | 0.944 | 0.901 | 0.685 | 0.478 | 0.761 |
| LU99A | 0.894 | 1.03 |  | 0.969 | 0.547 | 0.98 | 0.837 | 0.776 | 0.532 | 0.266 | 0.795 |
| NCI-H2228 | 1.16 | 1.04 | 1 | 0.585 | 0.482 | 1.12 | 0.845 | 0.777 | 0.609 | 0.719 | 0.679 |
| NCI-H1395 | 0.819 | 0.943 | 1.05 | 0.739 |  | 1.01 | 0.806 | 0.663 | 0.538 | 0.479 | 0.811 |
| HCC-15 | 0.917 | 1.04 | 1.01 | 0.974 | 0.813 | 1.09 | 0.904 | 0.999 | 0.878 | 0.731 |  |
| RERF-LC-KJ | 0.944 | 1.06 | 1.02 | 1.05 | 0.819 | 1.06 | 0.943 | 0.947 | 0.971 | 0.89 | 0.927 |

| Cell Line | relative viability (Crizotinib; 0.01 µM) | relative viability (Crizotinib; 0.03162 µM) | relative viability (Crizotinib; 0.1 µM) | relative viability (Crizotinib; 1 µM) | relative viability (Crizotinib; 1 µM, anchor plate) | relative viability (Olaparib; 0.08 µM) | relative viability (Olaparib; 0.253 µM) | relative viability (Olaparib; 2.53 µM) | relative viability (Olaparib; 8 µM) | relative viability (Olaparib; 8 µM, anchor plate) | relative viability (Crizotinib; 0.3162 µM) |
| --- | --- | --- | --- | --- | --- | --- | --- | --- | --- | --- | --- |
| NCI-H647 |  | 1.01 | 1.01 |  | 1.07 | 1.08 | 0.862 | 0.97 | 0.879 | 0.542 | 0.783 |
| 201T | 0.95 | 1 | 0.95 | 1 | 1.01 | 1.01 | 0.888 | 0.922 | 1.01 | 0.835 | 1.03 |
| HCC-366 | 0.952 | 1.01 |  | 1.07 | 0.466 | 1.05 | 0.988 | 0.943 | 0.862 | 0.352 |  |
| HOP-62 | 0.96 | 1.01 | 1.03 | 1.04 | 1 | 1.08 | 0.984 | 0.997 | 0.722 | 0.384 | 0.874 |
| NCI-H1299 | 0.976 | 1.02 | 1.02 | 0.976 | 0.932 | 1.08 | 0.981 | 1.01 | 0.995 | 0.968 |  |
| NCI-H1734 | 0.913 |  | 0.886 | 0.955 | 0.672 | 1.06 | 0.935 | 0.862 | 0.726 | 0.635 |  |
| NCI-H522 | 0.919 | 0.954 | 0.888 | 0.893 |  | 1.08 | 1.01 | 0.973 | 0.703 | 0.679 |  |
| SW 900 | 0.811 | 0.97 | 0.93 | 0.952 |  | 0.879 | 0.855 | 0.715 | 0.716 | 0.905 | 0.787 |
| NCI-H1563 | 0.887 | 0.995 | 0.908 | 1.06 | 0.843 | 1.16 | 0.902 | 1.01 | 0.912 |  | 1 |
| ChaGo-K-1 | 0.977 |  | 0.953 | 0.976 | 1.11 | 1.05 | 0.925 | 0.906 | 0.788 | 0.422 | 0.769 |
| NCI-H2405 | 1.01 | 0.977 | 0.909 | 0.973 | 0.789 | 1.09 | 0.884 | 0.945 | 1.02 | 0.853 | 0.949 |
| NCI-H727 | 0.693 | 1.03 | 1 | 1.17 | 0.868 | 1.04 | 0.753 | 0.783 | 0.736 | 0.741 | 0.779 |
| SW 1573 | 0.941 | 0.999 | 0.917 | 0.974 | 0.793 | 1.1 | 0.896 | 0.825 | 0.633 | 0.512 | 0.885 |
| HCC-44 | 0.967 | 0.974 | 1.06 | 0.944 | 0.785 | 1.04 | 0.949 | 1.02 | 1.08 | 0.963 | 0.879 |
| A-427 | 0.965 | 1.03 | 1.03 | 1.01 | 0.906 | 1.09 | 0.945 | 0.884 | 0.782 | 0.713 |  |
